According to patent publication US9034792B2, “Antifungal compositions” (DSM IP ASSETS B.V., priority 2011, dated 2015):
Several values for one entry are separate records, joined by “and”; a condition that tells them apart may be missing. Equal entries are not always repeated.

Legend:
Type in all cases: in vivo
Fusarium proliferatum = assay: Treatment of wounded bananas inoculated with Fusarium proliferatum; conditions: 20° C.
Method: Four organic, unripe (green) bananas were used per treatment. The peel of each banana was wounded thrice using a cork borer according to the method described by de Lapeyre de Bellaire and Dubois (1987). Subsequently, each wound was inoculated with 15 μl of a Fusarium proliferatum suspension containing 1×10^5 of spores/ml. […] In addition, the antifungal compositions comprised 1.00% (w/w) methylhydroxyethylcellulose (MHEC), 0.40% (w/w) xanthan gum, 0.20% (w/w) anti-foaming agent, 0.30% (w/w) citric acid, 0.39% (w/w) lactic acid and 0.11% (w/w) potassium sorbate. The pH of the compositions was 4. […] The treated, unripe bananas were incubated in a closed box in the dark at 20° C. and a relative air humidity of 95%, which was obtained in the presence of a saturated Na2HPO4 aqueous solution. During the first 10 days of incubation, a ripe (yellow) banana was included in the closed box to elevate the ethylene gas level and thus induce ripening of the treated, unripe bananas.
(§1) The expected antifungal activity (E in %) of the combined antifungal composition comprising both active ingredients was calculated according to the Colby equation (Colby, 1967): E=X+Y−[(X·Y)/100] wherein X and Y are the observed antifungal activities (in %) of the individual active ingredients X and Y, respectively. If the observed antifungal activity (O in %) of the combination exceeds the expected antifungal activity (E in %) of the combination and the synergy factor O/E is thus >1.0, the combined application of the active ingredients leads to a synergistic antifungal effect.
The degree of mould growth on the banana wounds was assessed according to the two methods described in Example 3.

Penicillium italicum = assay: Treatment of wounded mandarins inoculated with Penicillium italicum; conditions: 20° C., 250 ppm natamycin
Method: Ten fresh, organic mandarins were used per treatment. The peel of each mandarin was wounded once using a cork borer according to the method described by de Lapeyre de Bellaire and Dubois (1987). Subsequently, each wound was inoculated with 10 μl of a Penicillium italicum suspension containing 1×10^4 of spores/ml. […] The pH of the compositions was 4. A composition without natamycin or fluoxastrobin was used as control.
as §1, with “The treated mandarins were incubated in a closed box in the dark at 20° C. and assessed on mould growth after 10, 15, 19, 22 and 27 days of incubation. The antifungal activity (in %) of the individual active ingredients was determined by calculating the reduction in mould growth observed on the mandarins treated with the antifungal composition in comparison to the mould growth on the mandarins treated with the control composition. The” for “The”
A composition without natamycin or trifloxystrobin was used as control. The antifungal activity (in %) of the individual and combined active ingredients on mandarins was assessed after 8, 10 and 19 days of incubation according to the method described in Example 9.

Botrytis cinerea = assay: Treatment of wounded strawberries inoculated with Botrytis cinerea; conditions: 20° C.
Method: Twelve fresh, organic strawberries were used per treatment. Each strawberry was wounded with a 0.5 mm long cut and each wound was inoculated with 10 μl of a Botrytis cinerea suspension containing 1×10^5 of spores/ml. […] The antifungal composition also comprised 1.00% (w/w) methylhydroxyethylcellulose (MHEC), 0.40% (w/w) xanthan gum, 0.20% (w/w) anti-foaming agent, 0.30% (w/w) citric acid, 0.39% (w/w) lactic acid and 0.11% (w/w) potassium sorbate. The pH of the compositions was 4.
as §1, with “The treated strawberries were incubated in a closed box in the dark at 20° C. and assessed on mould growth after 4, 5, 7 and 8 days of incubation. […] The” for “The”, “effect. […]” for “effect.”

[1] = 21 days, 500 ppm natamycin, 1000 ppm fluoxastrobin or both
[2] = 27 days, 250 ppm natamycin, 500 ppm fluoxastrobin or both
[3] = 27 days, 500 ppm natamycin, 1000 ppm fluoxastrobin or both
[4] = 10 days, 500 ppm fluoxastrobin or both
[5] = 15 days, 500 ppm fluoxastrobin or both
[6] = 19 days, 500 ppm fluoxastrobin or both
[7] = 22 days, 500 ppm fluoxastrobin or both
[8] = 27 days, 500 ppm fluoxastrobin or both
[9] = 27 days, 500 ppm natamycin, 1000 ppm trifloxystrobin or both
[10] = 3 days, 50 ppm natamycin, 250 ppm trifloxystrobin or both
[11] = 5 days, 50 ppm natamycin, 250 ppm trifloxystrobin or both
[12] = 5 days, 250 ppm natamycin, 500 ppm trifloxystrobin or both
[13] = 5 days, 500 ppm natamycin, 1000 ppm trifloxystrobin or both
[14] = 7 days, 250 ppm natamycin, 500 ppm trifloxystrobin or both
[15] = 7 days, 500 ppm natamycin, 1000 ppm trifloxystrobin or both
[16] = 8 days, 250 ppm natamycin, 500 ppm trifloxystrobin or both
[17] = 8 days, 500 ppm natamycin, 1000 ppm trifloxystrobin or both
[18] = 9 days, 250 ppm natamycin, 500 ppm trifloxystrobin or both
[19] = 8 days, 400 ppm trifloxystrobin or both
[20] = 10 days, 400 ppm trifloxystrobin or both
[21] = 19 days, 400 ppm trifloxystrobin or both

Compound | Number of moulded wounds/total number of 12 wounds (Fusarium proliferatum; [1]) | Observed antifungal activity O (%) (Fusarium proliferatum; [1]) | Observed antifungal activity O (%) (Fusarium proliferatum; [2]) | Number of moulded wounds/total number of 12 wounds (Fusarium proliferatum; [3]) | Observed antifungal activity O (%) (Fusarium proliferatum; [3]) | Observed antifungal activity O (%) (Penicillium italicum; [4]) | Observed antifungal activity O (%) (Penicillium italicum; [5]) | Observed antifungal activity O (%) (Penicillium italicum; [6]) | Observed antifungal activity O (%) (Penicillium italicum; [7]) | Observed antifungal activity O (%) (Penicillium italicum; [8]) | Number of moulded wounds/total number of 12 wounds (Fusarium proliferatum; [9]) | Observed antifungal activity O (%) (Fusarium proliferatum; [9]) | Observed antifungal activity O (%) (Botrytis cinerea; [10]) | Observed antifungal activity O (%) (Botrytis cinerea; [11]) | Number of moulded strawberries/total number of 12 strawberries (Botrytis cinerea; [12]) | Number of moulded strawberries/total number of 12 strawberries (Botrytis cinerea; [13]) | Observed antifungal activity O (%) (Botrytis cinerea; [13]) | Observed antifungal activity O (%) (Botrytis cinerea; [14]) | Observed antifungal activity O (%) (Botrytis cinerea; [15]) | Observed antifungal activity O (%) (Botrytis cinerea; [16]) | other results
CO/N=C(/C1=NOCCO1)c1ccccc1Oc1ncnc(Oc2ccccc2Cl)c1F [Fluoxastrobin, fluoxastrobin] | 10 and 10/12 | 42 | 31 | 12 and 12/12 | 7 | 28 | 24 | 6 | 4 | 0 | – | – | – | – | – | – | – | – | – | – | –
CON=C(C(=O)OC)c1ccccc1CON=C(C)c1cccc(C(F)(F)F)c1 [Trifloxystrobin, trifloxystrobin] | – | – | – | – | – | – | – | – | – | – | 10 and 10/12 | 75 | 50 | 7 | 12 and 12/12 | 12 and 12/12 | 0 | 0 | 6 | 0 | Observed antifungal activity O (%) (Botrytis cinerea; [17]): 6%; Observed antifungal activity O (%) (Botrytis cinerea; [18]): 0%; Observed antifungal activity O (%) (Penicillium italicum; [19]): 61%; Observed antifungal activity O (%) (Penicillium italicum; [20]): 42%; Observed antifungal activity O (%) (Penicillium italicum; [21]): 0%
natamycin | 6 and 6/12 | 78 | 4 | 12 and 12/12 | 63 | 54 | 19 | 5 | 5 | 5 | 12 and 12/12 | 63 | 64 | 17 | 12 and 12/12 | 12 and 12/12 | 31 | 10 | 13 | 2 | Observed antifungal activity O (%) (Botrytis cinerea; [17]): 0%; Observed antifungal activity O (%) (Botrytis cinerea; [18]): 0%; Observed antifungal activity O (%) (Penicillium italicum; [19]): 83%; Observed antifungal activity O (%) (Penicillium italicum; [20]): 54%; Observed antifungal activity O (%) (Penicillium italicum; [21]): 5%
